Measurements as given in PubChem BioAssay (NCI).
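GI50 marks 50% less growth. At the TGI there is no net growth.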

How the values were obtained:
Assay in all cases: NCI tumour cell line growth inhibition, 384-well format
[1] = system: 786-0 renal
[2] = system: A498 renal
[3] = system: A549 NSCLC
[4] = system: ACHN renal
[5] = system: BT-549 breast
[6] = system: CAKI-1 renal
[7] = system: CCRF-CEM leukemia
[8] = system: COLO 205 colon
[9] = system: DU-145 prostate
[10] = system: EKVX NSCLC
[11] = system: HCC-2998 colon
[12] = system: HCT-116 colon
[13] = system: HCT-15 colon
[14] = system: HL-60(TB) leukemia
[15] = system: HOP-62 NSCLC
[16] = system: HOP-92 NSCLC
[17] = system: HS 578T breast
[18] = system: HT29 colon
[19] = system: IGROV1 ovarian
[20] = system: KM12 colon
[21] = system: LOX IMVI melanoma
[22] = system: M14 melanoma
[23] = system: MALME-3M melanoma
[24] = system: MCF7 breast
[25] = system: MDA-MB-231 breast
[26] = system: MDA-MB-435 melanoma
[27] = system: MDA-MB-468 breast
[28] = system: MOLT-4 leukemia
[29] = system: NCI-H226 lung
[30] = system: NCI-H23 lung
[31] = system: NCI-H460 NSCLC
[32] = system: NCI-H522 lung
[33] = system: NCI/ADR-RES ovarian
[34] = system: OVCAR-3 ovarian
[35] = system: OVCAR-4 ovarian
[36] = system: OVCAR-5 ovarian
[37] = system: OVCAR-8 ovarian
[38] = system: PC-3 prostate
[39] = system: RPMI-8226 leukemia
[40] = system: RXF 393 renal
[41] = system: SF-268 CNS
[42] = system: SF-295 CNS
[43] = system: SF-539 CNS
[44] = system: SK-MEL-28 melanoma
[45] = system: SK-MEL-5 melanoma
[46] = system: SK-OV-3 ovarian
[47] = system: SN12C renal
[48] = system: SNB-19 CNS
[49] = system: SNB-75 CNS
[50] = system: SR leukemia
[51] = system: SW-620 colon
[52] = system: TK-10 renal
[53] = system: UACC-257 melanoma
[54] = system: UACC-62 melanoma
[55] = system: UO-31 renal
[56] = system: K-562 leukemia
[57] = system: NCI-H322M lung
[58] = system: SK-MEL-2 melanoma
[59] = system: U251 glioblastoma

CCN1C(=O)N(c2c(F)c(OC)cc(OC)c2F)Cc2cnc3[nH]c(CN4CCOCC4)cc3c21
GI50 [1]: 6.99 µM
TGI [1]: > 100 µM
GI50 [2]: 2.03 µM
TGI [2]: 57.3 µM
GI50 [3]: 4.69 µM
TGI [3]: > 31.6 µM
GI50 [4]: 3.86 µM
TGI [4]: > 100 µM
GI50 [5]: 0.0807 µM
TGI [5]: 7.02 µM
GI50 [6]: 1.03 µM
TGI [6]: > 31.4 µM
GI50 [7]: 5.26 µM
GI50 [8]: > 100 µM
TGI [8]: > 100 µM
GI50 [9]: 3.85 µM
TGI [9]: > 100 µM
GI50 [10]: > 81 µM
TGI [10]: > 100 µM
GI50 [11]: 6.61 µM
TGI [11]: > 100 µM
GI50 [12]: 3.84 µM
TGI [12]: > 100 µM
GI50 [13]: 3.17 µM
TGI [13]: > 100 µM
GI50 [14]: 3.28 µM
TGI [14]: 12.5 µM
GI50 [15]: 4.98 µM
TGI [15]: > 100 µM
GI50 [16]: 3.5 µM
TGI [16]: 23.6 µM
GI50 [17]: 1.06 µM
TGI [17]: 5.82 µM
GI50 [18]: 6.48 µM
GI50 [19]: 4.55 µM
TGI [19]: > 100 µM
GI50 [20]: 9.71 µM
TGI [20]: > 31.6 µM
GI50 [21]: 4.03 µM
TGI [21]: > 31.5 µM
GI50 [22]: 5.19 µM
TGI [22]: > 100 µM
GI50 [23]: 4.24 µM
TGI [23]: > 30.1 µM
GI50 [24]: > 60.4 µM
TGI [24]: > 100 µM
GI50 [25]: 6.15 µM
TGI [25]: 43.5 µM
GI50 [26]: > 100 µM
TGI [26]: > 100 µM
GI50 [27]: 3.64 µM
TGI [27]: 9.09 µM
GI50 [28]: 1.95 µM
TGI [28]: 4 µM
TGI [29]: 9.91 µM
GI50 [30]: > 23.3 µM
TGI [30]: > 100 µM
GI50 [31]: 3.48 µM
TGI [31]: > 31.6 µM
GI50 [32]: > 26.1 µM
TGI [32]: > 100 µM
GI50 [33]: 4.51 µM
TGI [33]: > 100 µM
GI50 [34]: 5.94 µM
TGI [34]: > 31.6 µM
GI50 [35]: 19.3 µM
TGI [35]: > 100 µM
GI50 [36]: > 73.3 µM
TGI [36]: > 100 µM
GI50 [37]: 4.8 µM
TGI [37]: > 100 µM
GI50 [38]: > 100 µM
TGI [38]: > 100 µM
GI50 [39]: 2.11 µM
TGI [39]: 6.34 µM
GI50 [40]: 0.962 µM
GI50 [41]: 5.25 µM
TGI [41]: 16.9 µM
GI50 [42]: 4.62 µM
TGI [42]: 47.4 µM
GI50 [43]: 3.55 µM
TGI [43]: > 44.5 µM
GI50 [44]: > 100 µM
TGI [44]: > 100 µM
GI50 [45]: 5.75 µM
TGI [45]: > 100 µM
GI50 [46]: 2.62 µM
TGI [46]: > 100 µM
GI50 [47]: 5.32 µM
TGI [47]: > 100 µM
GI50 [48]: > 100 µM
TGI [48]: > 100 µM
GI50 [49]: 0.0229 µM
TGI [49]: 6.52 µM
GI50 [50]: 2.67 µM
TGI [50]: 8.35 µM
GI50 [51]: 7.31 µM
GI50 [52]: > 100 µM
TGI [52]: > 100 µM
GI50 [53]: > 100 µM
TGI [53]: > 100 µM
GI50 [54]: 3.8 µM
TGI [54]: > 100 µM
GI50 [55]: > 31 µM
TGI [55]: > 100 µM

Cc1ccc(S(=O)(=O)Oc2ccc3sc4cccc(NCCN(C)C)c4c(=O)c3c2)cc1
GI50 [1]: > 100 µM
TGI [1]: > 100 µM
GI50 [2]: > 100 µM
TGI [2]: > 100 µM
GI50 [3]: 1.85 µM
TGI [3]: 3.34 µM
GI50 [4]: 1.73 µM
TGI [4]: 3.14 µM
GI50 [5]: 1.86 µM
TGI [5]: 3.28 µM
GI50 [6]: 1.65 µM
TGI [6]: 3.04 µM
GI50 [7]: 1.7 µM
TGI [7]: 3.11 µM
GI50 [8]: 1.94 µM
TGI [8]: 3.4 µM
GI50 [9]: 1.97 µM
TGI [9]: 3.43 µM
GI50 [10]: 1.85 µM
TGI [10]: 3.28 µM
GI50 [11]: 1.24 µM
TGI [11]: 2.51 µM
GI50 [12]: 1.83 µM
TGI [12]: 3.3 µM
GI50 [13]: > 100 µM
TGI [13]: > 100 µM
GI50 [14]: 0.787 µM
TGI [14]: 2.06 µM
GI50 [15]: 2.1 µM
TGI [15]: 3.56 µM
GI50 [16]: 1.9 µM
TGI [16]: 3.32 µM
GI50 [17]: 1.92 µM
TGI [17]: 3.35 µM
GI50 [18]: 1.71 µM
TGI [18]: 3.1 µM
GI50 [19]: 1.65 µM
TGI [19]: 3.01 µM
GI50 [56]: 1.91 µM
TGI [56]: 3.33 µM
GI50 [20]: 1.79 µM
TGI [20]: 3.23 µM
GI50 [21]: 1.78 µM
TGI [21]: 3.2 µM
GI50 [22]: 2.05 µM
TGI [22]: 3.49 µM
GI50 [23]: 1.89 µM
TGI [23]: 3.31 µM
GI50 [24]: 1.38 µM
TGI [24]: 2.71 µM
GI50 [26]: 1.78 µM
TGI [26]: 3.18 µM
GI50 [27]: 2.49 µM
TGI [27]: 3.96 µM
GI50 [28]: 1.59 µM
TGI [28]: 2.95 µM
GI50 [29]: 1.7 µM
TGI [29]: 3.08 µM
GI50 [30]: 1.99 µM
TGI [30]: 3.42 µM
GI50 [57]: 2.03 µM
TGI [57]: 3.48 µM
GI50 [31]: 1.72 µM
TGI [31]: 3.22 µM
GI50 [32]: > 100 µM
TGI [32]: > 100 µM
GI50 [33]: 1.83 µM
TGI [33]: 3.24 µM
GI50 [34]: 1.91 µM
TGI [34]: 3.33 µM
GI50 [35]: > 100 µM
TGI [35]: > 100 µM
GI50 [37]: 2.11 µM
TGI [37]: 3.59 µM
GI50 [38]: 1.81 µM
TGI [38]: 3.22 µM
GI50 [39]: 2.28 µM
TGI [39]: 3.75 µM
GI50 [40]: 1.93 µM
TGI [40]: 3.36 µM
GI50 [41]: 2.2 µM
TGI [41]: 3.67 µM
GI50 [42]: > 100 µM
TGI [42]: > 100 µM
GI50 [43]: 1.86 µM
TGI [43]: 3.29 µM
GI50 [58]: 1.99 µM
TGI [58]: 3.42 µM
GI50 [44]: 1.95 µM
TGI [44]: 3.38 µM
GI50 [45]: 1.29 µM
TGI [45]: 2.58 µM
GI50 [46]: 1.64 µM
TGI [46]: 3.02 µM
GI50 [47]: 1.91 µM
TGI [47]: 3.33 µM
GI50 [48]: 2.08 µM
TGI [48]: 3.54 µM
GI50 [49]: 2.09 µM
TGI [49]: 3.53 µM
GI50 [51]: 1.88 µM
TGI [51]: 3.35 µM
GI50 [52]: > 100 µM
TGI [52]: > 100 µM
GI50 [59]: 2.07 µM
TGI [59]: 3.54 µM
GI50 [53]: 1.89 µM
TGI [53]: 3.3 µM
GI50 [54]: 1.94 µM
TGI [54]: 3.38 µM
